Assay results published in patent US9023789B2, “Amylin analogs and pharmaceutical compositions thereof” (Novo Nordisk A/S, priority 2012, dated 2015).
In brackets after ≈: the same amount, converted by molar mass. Where two headings read alike, the source gives them in different places. Numbered stars: 1 amine (or outer) side, 2 acyl side, 3 side chain; on linkers, the order of the positions; unused ones are H or OH. Bridge positions count the residues as written; N and C are the ends. Side chains are listed from the residue outwards. Peptide text beside a SMILES is read from it. * marks the point of attachment. C20 diacid = O=C(O)CCCCCCCCCCCCCCCCCCC(=O)*; γGlu = O=C(O)[C@H](CCC(=O)[*:2])N[*:1]

Key:
[1] = ASSAY (IV) determination of solubility; assay type: physicochemical
In short: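 Dissolve polypeptide in water ([…] stock); combine 1:1 with each 100 mM buffer (glycylglycine pH 3.0/4.0/5.0; bistrispropane pH 6.0/6.5/7.0/7.5/8.0); hold 18 hours at room temperature; centrifuge; quantify polypeptide by UPLC.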

[2] = target: T1, human amylin receptor (membranes from Amylin 3(a)/CRE-luc cells) (Homo sapiens, UniProt O60896+P30988); assay: ASSAY (V) binding to the human amylin receptor (SPA, 125I-rat amylin);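 note: competition binding of cell membranes (35 ng/µL) mixed with SPA beads in 384-well plates at 40 µL total volume, read by scintillation counting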
T1 construct: expressed in transfected cells
T1 sequence (P30988 25-474): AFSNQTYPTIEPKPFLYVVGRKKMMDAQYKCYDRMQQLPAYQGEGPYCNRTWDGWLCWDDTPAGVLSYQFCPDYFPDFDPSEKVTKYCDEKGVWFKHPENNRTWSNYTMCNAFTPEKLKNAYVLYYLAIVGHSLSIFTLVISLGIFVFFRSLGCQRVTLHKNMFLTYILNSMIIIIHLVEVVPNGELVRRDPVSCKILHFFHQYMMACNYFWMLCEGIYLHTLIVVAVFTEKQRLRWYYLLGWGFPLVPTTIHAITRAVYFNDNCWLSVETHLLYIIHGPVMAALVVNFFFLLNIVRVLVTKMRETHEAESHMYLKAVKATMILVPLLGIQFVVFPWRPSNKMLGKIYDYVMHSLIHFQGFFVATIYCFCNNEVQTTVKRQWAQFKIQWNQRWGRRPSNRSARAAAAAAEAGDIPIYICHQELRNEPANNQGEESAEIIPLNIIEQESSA
T1 sequence (O60896 24-148 partner): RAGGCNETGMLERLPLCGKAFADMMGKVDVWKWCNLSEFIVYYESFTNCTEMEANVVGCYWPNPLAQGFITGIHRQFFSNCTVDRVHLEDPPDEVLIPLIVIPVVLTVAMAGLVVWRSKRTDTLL

[3] = target: T2, rat amylin receptor (rat calcitonin receptor + rat RAMP 3) (Rattus norvegicus, UniProt P32214+Q9JJ73); assay: ASSAY (VI) binding to the rat amylin receptor; conditions: for IC50: binding to rat amylin receptor, read-out: rAmylin-R bind IC50
T2 construct: expressed in transfected cells; host or cells: BHK tk'ts 13 (transient, FuGENE 6), membranes
T2 sequence (P32214 25-479 isoform P32214-2 limits assumed): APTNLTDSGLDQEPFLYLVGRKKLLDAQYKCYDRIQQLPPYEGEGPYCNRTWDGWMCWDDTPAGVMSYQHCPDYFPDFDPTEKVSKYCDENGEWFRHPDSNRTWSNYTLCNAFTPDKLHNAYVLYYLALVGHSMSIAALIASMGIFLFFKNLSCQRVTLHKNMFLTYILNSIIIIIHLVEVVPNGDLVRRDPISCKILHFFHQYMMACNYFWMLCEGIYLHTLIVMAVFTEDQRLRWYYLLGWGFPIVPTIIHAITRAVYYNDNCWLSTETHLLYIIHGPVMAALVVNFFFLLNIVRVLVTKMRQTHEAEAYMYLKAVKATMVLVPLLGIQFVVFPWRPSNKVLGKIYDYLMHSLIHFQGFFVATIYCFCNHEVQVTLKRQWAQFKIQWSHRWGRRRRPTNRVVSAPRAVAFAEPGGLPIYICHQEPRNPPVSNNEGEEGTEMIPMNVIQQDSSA
T2 sequence (Q9JJ73 23-147 partner): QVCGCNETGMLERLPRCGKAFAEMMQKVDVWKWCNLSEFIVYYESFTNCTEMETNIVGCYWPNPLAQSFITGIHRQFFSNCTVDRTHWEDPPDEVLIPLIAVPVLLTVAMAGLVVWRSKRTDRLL
In short: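 Binding to the rat amylin receptor was determined with membrane preparations. The receptor was expressed by transiently transfecting BHK tk′ts 13 cells with rat calcitonin receptor, using FuGENE® 6 (Roche) according to the manufacturer's recommendations. Roughly 48 hours later the cells were harvested and their membranes isolated.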

[4] = target: T3, rat calcitonin receptor (Rattus norvegicus, UniProt P32214); assay: ASSAY (VIII) binding to the rat calcitonin receptor; conditions: Table 7, read-out: rCTR bind IC50
T3 construct: expressed in transfected cells; host or cells: BHK tk'ts 13 (transient, FuGENE 6), membranes
T3 sequence (P32214 25-479 isoform P32214-2 limits assumed): T2 sequence (P32214 25-479 isoform P32214-2 limits assumed)
In short: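 Rat calcitonin receptor is expressed transiently in BHK tk′ts 13 cells cultured in DMEM with 10% FBS. Roughly two days (approximately 48 hours) post-transfection, cells are harvested for membrane preparation.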

[5] = bistrispropane buffer, pH 6.5, read-out: Solubility pH 6.5 Concentration
[6] = bistrispropane buffer, pH 7.5, read-out: Solubility pH 7.5 Concentration
[7] = bistrispropane buffer, pH 6.0, read-out: Solubility pH 6.0 Concentration
[8] = bistrispropane buffer, pH 7.0, read-out: Solubility pH 7.0 Concentration
[9] = bistrispropane buffer, pH 8.0, read-out: Solubility pH 8.0 Concentration
[10] = glycylglycine buffer, pH 3.0, read-out: Solubility pH 3.0 Concentration
[11] = glycylglycine buffer, pH 4.0, read-out: Solubility pH 4.0 Concentration
[12] = glycylglycine buffer, pH 5.0, read-out: Solubility pH 5.0 Concentration
[13] = Table 5, selectivity, hCTR bind IC50 / hAmylin-R bind IC50
[14] = Table 5a, selectivity, hCTR bind IC50 / hAmylin-R bind IC50
[15] = Table 5b, selectivity, hCTR bind IC50 / hAmylin-R bind IC50
[16] = Table 5c, selectivity, hCTR bind IC50 / hAmylin-R bind IC50
[17] = Table 7, human binding selectivity, included for comparison
[18] = Table 7a (preferred compounds), human binding selectivity, included for comparison
[19] = ratio of human calcitonin receptor binding IC50 to human amylin receptor binding IC50
[20] = Table 7, rat binding selectivity, rCTR IC50 / rAmylin-R IC50
[21] = Table 7a (preferred compounds), rat binding selectivity, rCTR IC50 / rAmylin-R IC50
[22] = ratio of rCTR bind IC50 to rAmylin-R bind IC50

Row | Compound | solubility at 18 h [1, 5] [µM] | solubility at 18 h [1, 6] [µM] | solubility at 18 h [1, 7] [µM] | solubility at 18 h [1, 8] [µM] | solubility at 18 h [1, 9] [µM] | solubility at 18 h [1, 10] [µM] | solubility at 18 h [1, 11] [µM] | solubility at 18 h [1, 12] [µM] | Ratio hCT/hAmylin binding [2, 13] | Ratio hCT/hAmylin binding [2, 14] | Ratio hCT/hAmylin binding [2, 15] | Ratio hCT/hAmylin binding [2, 16] | Ratio hCT/hAmylin binding [2, 17] | Ratio hCT/hAmylin binding [2, 18] | Ratio hCT/hAmylin binding [2, 19] | IC50 ([3]; Table 7) [nM] | Ratio rCT/rAmylin binding [3, 20] | Ratio rCT/rAmylin binding [3, 21] | Ratio rCT/rAmylin binding [3, 22] | IC50 [4] [nM] | also measured
1 | CC[C@H](C)[C@H](NC(=O)[C@H](C)NC(=O)CNC(=O)[C@H](Cc1ccccc1)NC(=O)[C@H](CC(N)=O)NC(=O)[C@@H]1CCCN1C(=O)[C@H](CO)NC(=O)[C@H](CO)NC(=O)[C@H](Cc1c[nH]cn1)NC(=O)[C@H](CCCNC(=N)N)NC(=O)[C@H](CC(C)C)NC(=O)[C@H](Cc1ccccc1)NC(=O)[C@H](C)NC(=O)[C@H](C)NC(=O)[C@H](CC(C)C)NC(=O)[C@H](CCCNC(=N)N)NC(=O)[C@H](CCC(N)=O)NC(=O)[C@@H](NC(=O)[C@H](C)NC(=O)[C@@H]1CSSC[C@H](NC(=O)[C@H](CCCNC(=N)N)NC(=O)CNC(=O)CC[C@H](NC(=O)CCCCCCCCCCCCCCCCCCC(=O)O)C(=O)O)C(=O)N[C@@H](CC(N)=O)C(=O)N[C@@H]([C@@H](C)O)C(=O)N[C@@H](C)C(=O)N[C@@H]([C@@H](C)O)C(=O)N1)[C@@H](C)O)C(=O)N1CCC[C@H]1C(=O)N[C@@H](CO)C(=O)N[C@@H](CO)C(=O)N[C@H](C(=O)N[C@@H](CC(N)=O)C(=O)N[C@H](C(=O)NCC(=O)N[C@@H](Cc1c[nH]cn1)C(=O)N[C@@H](CC(N)=O)C(=O)N[C@H](C(=O)N[C@@H](Cc1ccc(O)cc1)C(N)=O)[C@@H](C)O)C(C)C)[C@@H](C)O [Example 101] ({C20 diacid-γGlu}-GRCNTATCATQRLAAFLRHSSPNFGAIPSSTNVGHNTY-NH2; disulfide 3-8) | ≥ 200 | 69 (≈ 309 µg/mL) | ≥ 200 | 182 (≈ 814 µg/mL) | 83 (≈ 371 µg/mL) | ≥ 200 | ≥ 200 | ≥ 200 | 68.6 | 68.6 | 68.6 | 68.6 | 68.6 | 68.6 | 68.6 | 8.07 | 60.9 | 60.9 | 60.9 | 492 | IC50 ([2]; Table 4, read-out: hAmylin-R bind IC50): 0.426 nM
2 | CC[C@H](C)[C@H](NC(=O)[C@H](C)NC(=O)CNC(=O)[C@H](Cc1ccccc1)NC(=O)[C@H](CC(N)=O)NC(=O)[C@@H]1CCCN1C(=O)[C@H](CO)NC(=O)[C@H](CO)NC(=O)[C@H](Cc1c[nH]cn1)NC(=O)[C@H](CCCNC(=N)N)NC(=O)[C@H](CC(C)C)NC(=O)[C@H](Cc1ccccc1)NC(=O)[C@H](Cc1c[nH]cn1)NC(=O)[C@H](C)NC(=O)[C@H](CC(C)C)NC(=O)[C@H](CCCNC(=N)N)NC(=O)[C@H](CCC(N)=O)NC(=O)[C@@H](NC(=O)[C@H](C)NC(=O)[C@@H]1CSSC[C@H](NC(=O)[C@@H](N)CCCCNC(=O)CC[C@H](NC(=O)CCCCCCCCCCCCCCCCCCC(=O)O)C(=O)O)C(=O)N[C@@H](CC(N)=O)C(=O)N[C@@H]([C@@H](C)O)C(=O)N[C@@H](C)C(=O)N[C@@H]([C@@H](C)O)C(=O)N1)[C@@H](C)O)C(=O)N1CCC[C@H]1C(=O)N[C@@H](CO)C(=O)N[C@@H](CO)C(=O)N[C@H](C(=O)N1CCC[C@H]1C(=O)N[C@H](C(=O)NCC(=O)N1CCC[C@H]1C(=O)N[C@@H](CC(N)=O)C(=O)N[C@H](C(=O)N[C@@H](Cc1ccc(O)cc1)C(N)=O)[C@@H](C)O)C(C)C)[C@@H](C)O [Example 116] (H-K([γGlu-C20 diacid])CNTATCATQRLAHFLRHSSPNFGAIPSSTPVGPNTY-NH2; disulfide 2-7) | ≥ 200 | ≥ 200 | ≥ 200 | ≥ 200 | 180 (≈ 791 µg/mL) | ≥ 200 | ≥ 200 | ≥ 200 | 24.8 | 24.8 | 24.8 | 24.8 | 24.8 | 24.8 | 24.8 | 0.125 | 72.4 | 72.4 | 72.4 | 9.05 | –
